According to patent US10973810B2, “Methods for the treatment of neurological disorders” (Yumanity Therapeutics, Inc., priority 2017, dated 2021):

Key:
human SCD1 = molecular target: T1, human SCD1 (Homo sapiens, UniProt O00767); assay: Growth of humanized yeast surviving solely on human SCD1; format: cell-based; settings: for half-maximal inhibitory concentration (IC50), SCD1 humanized strain: growth inhibition
T1 construct: host or cells: S. cerevisiae ole1Δ strain (W303 pdr1Δ pdr3Δ background), plasmid pRS316 with TDH3 promoter and CYC1 terminator
T1 sequence (O00767 1-359): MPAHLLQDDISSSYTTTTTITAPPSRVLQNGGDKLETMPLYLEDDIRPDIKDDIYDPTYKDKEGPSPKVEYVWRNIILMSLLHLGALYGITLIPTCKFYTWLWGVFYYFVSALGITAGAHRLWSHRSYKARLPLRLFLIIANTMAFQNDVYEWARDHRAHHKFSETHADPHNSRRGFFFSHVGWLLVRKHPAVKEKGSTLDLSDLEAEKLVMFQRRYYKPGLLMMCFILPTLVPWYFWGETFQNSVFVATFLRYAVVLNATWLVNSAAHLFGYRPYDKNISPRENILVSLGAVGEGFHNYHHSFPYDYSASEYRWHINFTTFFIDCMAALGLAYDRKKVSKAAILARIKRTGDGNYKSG
Text: The coding sequence of yeast OLE1 was also cloned into this plasmid). These clones were then transformed into the ole1d strain and plated on CSM-Ura media (CSM lacking uracil) with 2% glucose (w/v) and independent colonies were isolated and amplified.
(§1) For experiments using a plasmid-borne copy of Ole1, SCD1, or SCD5 (FIGS. 3B, 6, and 7), media lacking uracil (SX-Ura, where X is glucose, raffinose, or galactose), was used for all steps of the compound profiling protocol to ensure its maintenance throughout the assay.
After yeast delivery, assay plates were incubated under humidified conditions at 30° C. for 24 to 40 h. ApoE4 rescue experiments were stopped at 24 h, aSyn experiments at 40 h, Ole1 at 24 h, and SCD1/SCD5 at 40 h. The growth of yeast was monitored by reading the OD600 of each well using a microplate reader (Perkin Elmer EnVision™).

human SCD5 = molecular target: T2, human SCD5 (Homo sapiens, UniProt Q86SK9); assay: Growth of humanized yeast surviving solely on human SCD5; format: cell-based; settings: for half-maximal inhibitory concentration (IC50), SCD5 humanized strain: growth inhibition
T2 construct: host or cells: S. cerevisiae ole1Δ strain (W303 pdr1Δ pdr3Δ background), plasmid pRS316 with TDH3 promoter and CYC1 terminator
T2 sequence (Q86SK9 1-330): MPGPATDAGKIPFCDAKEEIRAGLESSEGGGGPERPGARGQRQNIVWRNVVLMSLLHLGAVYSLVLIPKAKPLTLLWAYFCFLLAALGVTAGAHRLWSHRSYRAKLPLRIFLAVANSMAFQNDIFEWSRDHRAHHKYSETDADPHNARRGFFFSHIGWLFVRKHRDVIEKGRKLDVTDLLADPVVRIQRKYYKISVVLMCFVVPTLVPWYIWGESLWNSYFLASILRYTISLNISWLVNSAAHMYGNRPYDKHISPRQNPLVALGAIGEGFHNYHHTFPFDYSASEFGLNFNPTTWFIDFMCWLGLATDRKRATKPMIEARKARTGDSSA
Text: (§2) To generate yeast strains expressing SCD1 or SCD5 as the sole desaturase, the human SCD1 and SCD5 genes were cloned from cDNAs (Harvard PlasmID database Clone ID HsCD00340237 for SCD1 and HsCD00342695 for SCD5) into yeast plasmid pRS316 (ATCC 77145) between the yeast TDH3 promoter and the CYC1 terminator. The coding sequence of yeast OLE1 was also cloned into this plasmid). These clones were then transformed into the ole1d strain and plated on CSM-Ura media (CSM lacking uracil) with 2% glucose (w/v) and independent colonies were isolated and amplified.
as §1
(§3) After yeast delivery, assay plates were incubated under humidified conditions at 30° C. for 24 to 40 h. ApoE4 rescue experiments were stopped at 24 h, aSyn experiments at 40 h, Ole1 at 24 h, and SCD1/SCD5 at 40 h. The growth of yeast was monitored by reading the OD600 of each well using a microplate reader (Perkin Elmer EnVision™). For model rescue experiments, raw data were processed by background subtracting and calculating a fold-change relative to DMSO control [(EXP-0.035)/(DMSO-0.035)—where 0.035 is the OD600 contributed by an empty well containing 30 μL of media alone]. For growth inhibition of wild-type cells, raw data were processed by background subtracting and converting values to a percent of the nontreated condition for that strain [(EXP-0.035)/(DMSO-0.035)×100%].

yeast OLE1 = molecular target: T3, yeast OLE1 (Saccharomyces cerevisiae, UniProt P21147, L450T/T449L); assay: Growth of yeast surviving solely on yeast OLE1; format: cell-based; settings: 24 h
T3 construct: expressed in transfected cells; host or cells: S. cerevisiae ole1Δ strain (W303 pdr1Δ pdr3Δ background), plasmid pRS316 with TDH3 promoter and CYC1 terminator
Text: as §2, §1, §3

[1] = tested on: cellular fatty acid desaturase activity (Ole1); assay: Quantitative lipid profiling of treated yeast cells by LC-MS/MS; format: cell-based, Saccharomyces cerevisiae
Protocol: FIGS. 8A-8D are graphs showing that treatment of yeast cells with the 1,2,4-oxadiazole Compound 2 inhibits lipid desaturation. Exponentially-growing wild-type yeast cells were treated with the indicated doses of the 1,2,4-oxadiazole Compound 2 for the indicated times before cellular lysis, lipid extraction, and analysis by global LC-MS/MS profiling. The relative abundance (fraction of total cellular lipid signal) after 1.5 h and 8 h of the most abundant saturated lipid, phosphatidylcholine 26:0, is depicted in FIGS. 8A and 8B, respectively. The relative abundance after 1.5 h and 8 h drug treatment of the most abundant lipid with 2 or more degrees of unsaturation, phosphatidylcholine 16:1; 18:1, is depicted in FIGS. 8C and 8D, respectively.
Overnight cultures of yeast strain W303 pdr1Δ pdr3Δ were diluted into CSM media with 2% (w/v) raffinose, OD600 0.25, and grown for 4 h before resuspending at an OD600 of 0.2 in CSM media with 2% (w/v) galactose and adding Compound 2 or DMSO at the indicated concentrations. Cells were grown for the indicated timepoints before centrifugation, washing once in PBS, and freezing pellets. Lipids were extracted from pellets by resuspending the pellets in 600 μL methanol, 300 μL water, and 400 μL chloroform, followed by cell lysis by vortexing with glass beads for 1 min. Samples were then centrifuged at 10,000×g for 10 min, and the bottom layer that formed (organic/lipids) was moved into a new tube and evaporated. Samples were then analyzed by LC/MS/MS using a Thermo Scientific Q Exactive™ Orbitrap™ coupled to a Dionex UltiMate® 3000 ultra-high performance liquid chromatography system, following the method described in Tafesse et al. PLoS Pathog. 11(10): e1005188, 2015.

ApoE4 = ApoE4 Alzheimer's disease yeast model, rescue of toxicity (OD600 growth); format: cell-based, Saccharomyces cerevisiae; settings: 12-point dose; ApoE4 expression induced
Text: Strain ApoE-mga2Δ was generated by amplifying 1000 base pairs (bp) upstream and downstream of the MGA2 ORF in a strain in which MGA2 was deleted using a G418 (GENETICIN®) resistance cassette (kanMX) (Piotrowski et al. Proc. Natl. Acad. Sci. USA 112(12):E1490-1497, 2015) and transforming the resulting deletion cassette into the ApoE4 strain in the BY4741 (ATCC 201388) genetic background. The ApoE strain is described, for example, in International Patent Application Publication No. WO 2016/040794, which is incorporated herein by reference in its entirety.
Yeast were cultured using standard techniques in complete synthetic media (CSM) and yeast nitrogen base supplemented with 2% (w/v) carbon source (glucose, raffinose, or galactose) to regulate the expression of the toxic disease protein. An initial starter culture was inoculated in 3 mL CSM-Glucose media and incubated overnight in a 30° C. shaker incubator (225 rpm). Saturated morning cultures were then diluted 1:20 in fresh CSM-Raffinose media and grown for 6 h to an OD600 (optical density) of 0.4-0.8 at 30° C. with shaking. […]
(§4) After yeast delivery, assay plates were incubated under humidified conditions at 30° C. for 24 to 40 h. […] The growth of yeast was monitored by reading the OD600 of each well using a microplate reader (Perkin Elmer EnVision™). […]

yeast = assay: Yeast growth inhibition in control / wild-type condition (OD600); format: cell-based, Saccharomyces cerevisiae; settings: ApoE4 strain under non-inducing conditions (raffinose); at concentrations just above Emax of rescue
Text: Strain GMYF was constructed from the ABC16/Green monster strain described in Suzuki et al. Nat. Methods 8(2):159-164, 2011. In this strain, YAP1 was deleted using a HIS3-MX6 cassette, and FLR1 was deleted using a NAT-MX6 cassette using standard methods. The knockout cassettes were PCR-amplified from plasmid templates (see, e.g., Bahler et al. Yeast 14(10):943-951, 1998; Longtine et al. Yeast 14(10):953-961, 1998) and transformed into yeast using lithium acetate-based transformation (Gietz et al. Methods Mol. Biol. 1205:1-12, 2014). The yap1::his3 deletion strain was selected on media lacking histidine and flr1::NAT on plates containing 100 μg/mL nourseothricin. All strains were confirmed by diagnostic PCR. Strain W303 pdr1Δ pdr3Δ was constructed from W303-1A (American Type Culture Collection (ATCC) 208352) by deleting PDR1 and PDR3 with kan-MX6 cassettes separately in MATa and MATa W303a isolates, mating, sporulating, and identifying the double deletion haploids by tetrad dissection and identification of non-parental ditype tetrads. Strain W-erg3 was derived from W303 pdr1 Δ pdr3Δ by deleting SNQ2 with NAT-MX6, YAP1 with HIS3-MX6, and ERG3 with BleMX. […]
as §4

T3 sequence (P21147 whole entry T449L/L450T): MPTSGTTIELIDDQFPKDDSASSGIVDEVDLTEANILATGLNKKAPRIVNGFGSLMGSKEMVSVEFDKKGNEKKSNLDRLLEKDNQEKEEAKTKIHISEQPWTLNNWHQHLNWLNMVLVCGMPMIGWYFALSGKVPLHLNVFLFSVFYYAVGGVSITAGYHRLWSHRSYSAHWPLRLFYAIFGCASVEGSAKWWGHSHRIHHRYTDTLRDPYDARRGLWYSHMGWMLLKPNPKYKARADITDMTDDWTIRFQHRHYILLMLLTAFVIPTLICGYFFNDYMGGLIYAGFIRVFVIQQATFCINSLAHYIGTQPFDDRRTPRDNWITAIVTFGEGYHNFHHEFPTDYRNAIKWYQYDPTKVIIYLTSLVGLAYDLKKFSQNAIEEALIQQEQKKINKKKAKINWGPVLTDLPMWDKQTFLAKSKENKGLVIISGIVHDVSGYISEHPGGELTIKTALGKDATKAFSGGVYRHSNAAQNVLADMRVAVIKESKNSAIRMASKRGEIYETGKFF

SMILES | half-maximal inhibitory concentration (IC50), SCD1 humanized strain (human SCD1) | half-maximal inhibitory concentration (IC50), SCD5 humanized strain (human SCD5) | growth of yeast strain expressing Ole1 (percent of DMSO-treated condition) (yeast OLE1) | other results
CNC(=O)c1cccc(NC(=O)N2CCC(Oc3ccccc3Cl)CC2)c1 [Compound A939572] | low nanomolar | low nanomolar | resistant | 
Cc1nnc(-c2ccc(N3CCC(Oc4ccccc4C(F)(F)F)CC3)nn2)s1 [MF-438] | low nanomolar | low nanomolar | resistant | 
Cc1nn(C)c2cc(-c3noc(C4CCN(C(=O)CNC(=O)c5ccccc5)CC4)n3)ccc12 [Compound 2, N-(2-(4-(3-(1,3-dimethyl-1H-indazol-6-yl)-1,2,4-oxadiazol-5-yl)piperidin-1-yl)-2-oxoethyl)benzamide] |  |  |  | lipid desaturation in yeast cells [1]: inhibited lipid desaturation; decrease in abundance of unsaturated lipid phosphatidylcholine 16:1, 18:1 ([1]; 8 h treatment, wild-type yeast): > 12 fold; increase in abundance of saturated lipid phosphatidylcholine 26:0 ([1]; after 8 h treatment, wild-type yeast): > 300 fold
O=C(O)Cn1nnc(-c2cc(N3CCC(Oc4cc(F)ccc4Br)CC3)no2)n1 [MK-8245] |  | low nanomolar | resistant | 
C[C@@H]1C[C@@H]([C@H](O)CC2CC(=O)NC(=O)C2)C(=O)[C@@H](C)C1 [Cyclohexamide] |  |  | inhibited growth of all three strains with the same potency | growth of SCD1-expressing yeast (percent of DMSO-treated condition) (human SCD1; 40 h): inhibited growth of all three strains with the same potency; growth of SCD5-expressing yeast (percent of DMSO-treated condition) (human SCD5; 40 h): inhibited growth of all three strains with the same potency
COc1ccc(-c2noc(C3CCN(C(=O)CNC(=O)c4ccccc4)CC3)n2)cc1OC [Compound 1, N-(2-(4-(3-(3,4-dimethoxyphenyl)-1,2,4-oxadiazol-5-yl)piperidin-1-yl)-2-oxoethyl)benzamide] |  |  |  | rescue in ApoE4 model, dose-response curve (raw OD600) (ApoE4): bell-shaped dose-response curve; growth in control condition (yeast): growth decreased
